Assay results taken from patent US12203124B2, “Methods for improved rapid antimicrobial susceptibility testing” (priority 2016, dated 2025).

Tested on: Bacteria
Test: Bacterial growth with or without resazurin during incubation, BacTiter-Glo luminescence
Format: cell-based
Conditions: 4 hours at 35° C., versus resazurin added after incubation
Procedure: FIG. 1 illustrates growth luminescence ratios post-incubation of microogranisms, where resazurin was introduced to one group of microorganisms before the initial incubation period and the other group was introduced to resazurin after the initial incubation period.
Bacteria were inoculated into 96-well microplates comprise cation-adjusted Mueller Hinton broth in the presence and absence of resazurin (alamarBlue®) and incubated at 35° C. for 4 hours. For wells that were not incubated with resazurin, the growth indicator was added immediately after the 4-hour incubation. BacTiter-Glo reagent (Promega, Madison, WI) was added to all wells and luminescence was measured. […] Thus, it can be advantageous to remove growth indicator from test wells during incubation.

## O=c1ccc2[n+]([O-])c3ccc(O)cc3oc-2c1 [resazurin, 7-hydroxy-10-oxidophenoxazin-10-ium-3-one]
  Effect of resazurin present during incubation on viable bacteria (BacTiter-Glo luminescence): less luminescent signal was observed
